Experimental findings from ChEMBL document CHEMBL5543096 (J Med Chem, 2024) are described below.

Activity calls are given as the source filed them. The calls are words filed in the database; no cut-off is given here.

Data set [1] concerns Mus musculus. Put plainly: Antidepressant activity in Reserpine-induced depressive C57BL/6J mouse model assessed as decrease in immobility time at 0.3 mg/kg,ip administration measured after 30 mins by tail suspension test. The class given is functional, organism-based.
In data set [2] the test system is Mus musculus. Briefly: Antidepressant activity in Reserpine-induced depressive C57BL/6J mouse model assessed as decrease in immobility time at 0.3 mg/kg,ip administration measured after 7 days by tail suspension test. The class given is functional, organism-based. Conditions: time 7.0 day.
The test system of data set [3] is Mus musculus. Put plainly: Antidepressant activity in Reserpine-induced depressive C57BL/6J mouse model assessed as decrease in immobility time at 0.3 mg/kg,ip administration measured for 1 to 3 days by tail suspension test. The class given is functional, organism-based. The note with it: time 1-3 day.
Data set [4] deals with Mus musculus. Put plainly: Antidepressant activity in Reserpine-induced depressive C57BL/6J mouse model assessed as decrease in immobility time at 0.3 mg/kg,ip administration measured after 5 days by tail suspension test. The note with it: time 5.0 day. The class given is functional, organism-based.
A short description of data set [5]: Toxicity in chronic restraint stress-induced depressive C57BL/6J mouse model assessed as decrease in percentage of spontaneous alternation at 1 mg/kg,ip administration by Y-maze test. The class given is organism-based. Conditions: in vivo.
The nature of data set [6]: Toxicity in chronic restraint stress-induced depressive C57BL/6J mouse model assessed as decrease in percentage of spontaneous alternation at 2 mg/kg,ip administration by Y-maze test. The class given is organism-based. The note with it: in vivo.
Data set [7] has as its system Mus musculus. Briefly: Antidepressant activity in chronic restraint stress-induced depressive C57BL/6J mouse model assessed as increase in hippocampal BDNF mRNA expression at 0.3 mg/kg,ip administration measured after 8 hrs by qRT-PCR analysis. The class given is functional, organism-based. A general note: In qPCR the cycle at which signal appears reflects the starting amount.

Data set [8] has as its system Mus musculus. Put plainly: Antidepressant activity in Reserpine-induced depressive C57BL/6J mouse model assessed as decrease in immobility time at 0.1 to 0.3 mg/kg,ip administration measured after 30 mins by tail suspension test. Conditions: dose 0.1-0.3 mg/kg. The class given is functional, organism-based.
The subject of data set [9] is Mus musculus. Put plainly: Antidepressant activity in Reserpine-induced depressive C57BL/6J mouse model assessed as decrease in immobility time at 0.1 to 1 mg/kg,ip administration measured after 7 days by tail suspension test. The class given is functional, organism-based. Conditions: dose 0.1-1 mg/kg, time 7.0 day.

As to `CN1[C@@H]2C[C@@H](OC(=O)C(F)(CCl)c3ccccc3)C[C@H]1[C@@H]1O[C@@H]12` (some centres not stated), the result in the data set with Mus musculus [1] and with Mus musculus [2] was inactive.
As to `CN1[C@@H]2C[C@@H](OC(=O)C(F)(CO)Cc3ccccc3F)C[C@H]1[C@@H]1O[C@@H]12` (some centres not stated), the result with Mus musculus [2] was inactive.
With `Cc1ccc(S(=O)(=O)OCC(F)(C(=O)O[C@@H]2C[C@@H]3[C@H]4O[C@H]4[C@H](C2)N3C)c2ccccc2)cc1` (some centres not stated), the outcome with Mus musculus [1] and in the data set on Mus musculus [2] was inactive.
Take `CN1[C@@H]2C[C@@H](OC(=O)C(F)(CO)Cc3ccc(C(F)(F)F)cc3)C[C@H]1[C@@H]1O[C@@H]12` (some centres not stated): the outcome in the data set on Mus musculus [2] was inactive.
Regarding `CCCCC(F)(CO)C(=O)O[C@@H]1C[C@@H]2[C@H]3O[C@H]3[C@H](C1)N2C` (some centres not stated), the outcome in the data set on Mus musculus [1] and with Mus musculus [2] was inactive.
Consider `CN1[C@@H]2C[C@@H](OC(=O)C(F)(CI)c3ccccc3)C[C@H]1[C@@H]1O[C@@H]12` (some centres not stated), for which the outcome in the data set on Mus musculus [1] and in the data set on Mus musculus [2] was inactive.
In the case of `CN1[C@@H]2C[C@@H](OC(=O)[C@H](CO)c3ccccc3)C[C@H]1[C@@H]1O[C@@H]12` [SCOPOLAMINE], the outcome in the data set on Mus musculus [1], in the data set on Mus musculus [3] and with Mus musculus [7] was Active. Also, the result with Mus musculus [2] and in the data set on Mus musculus [4] was inactive. Also, the Activity entry in data set [5] and in [6] was “Toxic” each time.
For the molecule `CN1[C@@H]2C[C@@H](OC(=O)C(F)c3ccccc3)C[C@H]1[C@@H]1O[C@@H]12` (some centres not stated), the result in the data set with Mus musculus [1] and with Mus musculus [2] was inactive.
Take `CN1[C@@H]2C[C@@H](OC(=O)C(F)(CO)c3ccc(F)cc3)C[C@H]1[C@@H]1O[C@@H]12` (some centres not stated): the outcome in the data set with Mus musculus [2] was inactive.
As for `CN1[C@@H]2C[C@@H](OC(=O)C(F)(CO)Cc3ccccc3)C[C@H]1[C@@H]1O[C@@H]12` (some centres not stated), the outcome with Mus musculus [1] was Active. The outcome in the data set on Mus musculus [2] was inactive.
The corresponding values for `CN1[C@@H]2C[C@@H](OC(=O)C(F)(CO)c3cccc(F)c3)C[C@H]1[C@@H]1O[C@@H]12` (some centres not stated) are “Active” and “inactive”.
As for `CN1[C@@H]2C[C@@H](OC(=O)[C@](F)(CO)c3ccccc3)C[C@H]1[C@@H]1O[C@@H]12`, the outcome in the data set with Mus musculus [8] was Active. The outcome in the data set on Mus musculus [9] was inactive.
For `CCCCC(F)(CCl)C(=O)O[C@@H]1C[C@@H]2[C@H]3O[C@H]3[C@H](C1)N2C` (some centres not stated), the outcome in the data set with Mus musculus [1] and with Mus musculus [2] was inactive.
In the case of `C=CCC(F)(CCl)C(=O)O[C@@H]1C[C@@H]2[C@H]3O[C@H]3[C@H](C1)N2C` (some centres not stated), the outcome in the data set on Mus musculus [1] and in the data set with Mus musculus [2] was inactive.
Turning to `CN1[C@@H]2C[C@@H](OC(=O)C(F)(CBr)Cc3ccccc3)C[C@H]1[C@@H]1O[C@@H]12` (some centres not stated), the outcome in the data set on Mus musculus [1] and with Mus musculus [2] was inactive.
Consider `CN1[C@@H]2C[C@@H](OC(=O)C(F)(CO)CCc3ccccc3)C[C@H]1[C@@H]1O[C@@H]12` (some centres not stated), for which the outcome in the data set with Mus musculus [1] and in the data set on Mus musculus [2] was inactive.
In the case of `Cc1ccc(S(=O)(=O)OCC(F)(Cc2ccccc2)C(=O)O[C@@H]2C[C@@H]3[C@H]4O[C@H]4[C@H](C2)N3C)cc1` (some centres not stated), the outcome in the data set on Mus musculus [1] and in the data set on Mus musculus [2] was inactive.
Regarding `CN1[C@@H]2C[C@@H](OC(=O)C(F)(CBr)c3ccccc3)C[C@H]1[C@@H]1O[C@@H]12` (some centres not stated), the result with Mus musculus [1] and in the data set on Mus musculus [2] was inactive.
On to `CN1[C@@H]2C[C@@H](OC(=O)C(F)(CO)CCCc3ccccc3)C[C@H]1[C@@H]1O[C@@H]12` (some centres not stated), for which the result with Mus musculus [1] and in the data set with Mus musculus [2] was inactive.
Take `CN1[C@@H]2C[C@@H](OC(=O)C(F)(CO)c3ccccc3)C[C@H]1[C@@H]1O[C@@H]12` (some centres not stated): the result in the data set with Mus musculus [1] and in the data set with Mus musculus [2] was Active.
With `CN1[C@@H]2C[C@@H](OC(=O)C(F)(CCl)Cc3ccccc3)C[C@H]1[C@@H]1O[C@@H]12` (some centres not stated), the result in the data set with Mus musculus [1] and with Mus musculus [2] was inactive.
As to `CN1[C@@H]2C[C@@H](OC(=O)C(F)(CO)Cc3ccccc3Br)C[C@H]1[C@@H]1O[C@@H]12` (some centres not stated), the result in the data set on Mus musculus [2] was inactive.
As for `CN1[C@@H]2C[C@@H](OC(=O)C(F)(CO)Cc3cccc4ccccc34)C[C@H]1[C@@H]1O[C@@H]12` (some centres not stated), in the data set on Mus musculus [2], the outcome was inactive.
As to `C=CCC(F)(CO)C(=O)O[C@@H]1C[C@@H]2[C@H]3O[C@H]3[C@H](C1)N2C` (some centres not stated), the result in the data set with Mus musculus [1] and in the data set on Mus musculus [2] was inactive.
Regarding `CN1[C@@H]2CC[C@H]1C[C@@H](OC(=O)C(F)(CO)c1ccccc1)C2` (some centres not stated), the outcome with Mus musculus [1] and with Mus musculus [2] was inactive.
On to `CN1[C@@H]2C[C@@H](OC(=O)C(F)(CN=[N+]=[N-])Cc3ccccc3)C[C@H]1[C@@H]1O[C@@H]12` (some centres not stated), for which the outcome with Mus musculus [1] and with Mus musculus [2] was inactive.
